“And” between values parts separate entries of the source, which are not always exact repeats. Equal values may be shown once. Read-outs that look alike come from different tables or passages of the source.
Biological target: T1, FIH^WT (Homo sapiens, UniProt Q9NWT6)
T1 construct: pET28a vectors encoding for full-length FIH with an N-terminal His6 tag; His6 (N); host or cells: Escherichia coli BL21
Experiment: Affinity-based fluorescence polarization (FP) assay with FIH WT, without and with 365 nm irradiation
Details: read-out: Binding affinity to FIH^WT: Ki
Source text: We also performed a reported affinity-based fluorescence polarization (FP) assay (Figure S6) , under light activation to measure the binding affinity of NBA-ZG-2291 to FIH (Figure A). […] These observations are consistent with the intact protein MS analyzes. We also evaluated the binding affinities of two negative controls to FIH, which were designed not to covalently react with Lys106.
4 (A) Light-induced click conjugation between NBA-ZG-2291 and FIH protein. (B) Light-induced binding affinity of NBA-ZG-2291 to FIH^ WT . (C) Light-induced binding affinity of NBA-ZG-2291 to FIH^ K106A . […] TEXT PRINTED IN THE PICTURE: (B) NBA-ZG-2291: Binding affinity to FIH^WT: Ki (nM): 414 ± 14 (Irradtion time (min): 0); Binding affinity to FIH^WT: Ki (nM): 74.1 ± 1.6 (Irradtion time (min): 15); Binding affinity to FIH^WT: Ki (nM): 46.7 ± 1.4 (Irradtion time (min): 30); Binding affinity to FIH^WT: Ki (nM): 33.2 ± 0.6 (Irradtion time (min): 60); Binding affinity to FIH^WT: Ki (nM): 30.2 ± 2.0 (Irradtion time (min): 90); Binding affinity to FIH^WT: Ki (nM): 32.1 ± 0.7 (Irradtion time (min): 120) | (B) Neg-1: Binding affinity to FIH^WT: Ki (nM): 423 ± 7 (Irradtion time (min): 0); Binding affinity to FIH^WT: Ki (nM): 408 ± 30 (Irradtion time (min): 15); Binding affinity to FIH^WT: Ki (nM): 459 ± 32 (Irradtion time (min): 30); Binding affinity to FIH^WT: Ki (nM): 427 ± 17 (Irradtion time (min): 60); Binding affinity to FIH^WT: Ki (nM): 396 ± 29 (Irradtion time (min): 90); Binding affinity to FIH^WT: Ki (nM): 428 ± 15 (Irradtion time (min): 120) | (B) Neg-2: Binding affinity to FIH^WT: Ki (nM): 742 ± 65 (Irradtion time (min): 0); Binding affinity to FIH^WT: Ki (nM): 799 ± 69 (Irradtion time (min): 15); Binding affinity to FIH^WT: Ki (nM): 758 ± 13 (Irradtion time (min): 30); Binding affinity to FIH^WT: Ki (nM): 744 ± 30 (Irradtion time (min): 60); Binding affinity to FIH^WT: Ki (nM): 788 ± 36 (Irradtion time (min): 90); Binding affinity to FIH^WT: Ki (nM): 786 ± 35 (Irradtion time (min): 120) | (C) NBA-ZG-2291: Binding affinity to FIH^K106A: Ki (nM): 442 ± 12 (Irradtion time (min): 0); Binding affinity to FIH^K106A: Ki (nM): 427 ± 22 (Irradtion time (min): 15); Binding affinity to FIH^K106A: Ki (nM): 426 ± 7 (Irradtion time (min): 30); Binding affinity to FIH^K106A: Ki (nM): 420 ± 11 (Irradtion time (min): 60); Binding affinity to FIH^K106A: Ki (nM): 418 ± 5 (Irradtion time (min): 90); Binding affinity to FIH^K106A: Ki (nM): 424 ± 12 (Irradtion time (min): 120) | (C) Neg-1: Binding affinity to FIH^K106A: Ki (nM): 271 ± 14 (Irradtion time (min): 0); Binding affinity to FIH^K106A: Ki (nM): 275 ± 15 (Irradtion time (min): 15); Binding affinity to FIH^K106A: Ki (nM): 268 ± 25 (Irradtion time (min): 30); Binding affinity to FIH^K106A: Ki (nM): 266 ± 22 (Irradtion time (min): 60); Binding affinity to FIH^K106A: Ki (nM): 264 ± 41 (Irradtion time (min): 90); Binding affinity to FIH^K106A: Ki (nM): 270 ± 3 (Irradtion time (min): 120) | (C) Neg-2: Binding affinity to FIH^K106A: Ki (nM): 567 ± 37 (Irradtion time (min): 0); Binding affinity to FIH^K106A: Ki (nM): 548 ± 61 (Irradtion time (min): 15); Binding affinity to FIH^K106A: Ki (nM): 521 ± 50 (Irradtion time (min): 30); Binding affinity to FIH^K106A: Ki (nM): 627 ± 17 (Irradtion time (min): 60); Binding affinity to FIH^K106A: Ki (nM): 565 ± 10 (Irradtion time (min): 90); Binding affinity to FIH^K106A: Ki (nM): 552 ± 38 (Irradtion time (min): 120) […]
3. Experimental procedures
3.1 Fluorescence polarization (FP) assays1 with FIHWT and FIHK106A pET28a vectors encoding for full-length FIH with an N-terminal His6 tag or for FIH (K106A) with an N-terminal His6 tag were purchased from Nanjing Zoonbio Biotechnology. Both the FIHWT and FIHK106A protein were expressed from the respective plasmid in Escherichia coli BL21 at 20 °C for 16 h. E. coli cells were lysed and the lysate were clarified by centrifugation. His6- […]

T1 sequence (Q9NWT6 whole entry): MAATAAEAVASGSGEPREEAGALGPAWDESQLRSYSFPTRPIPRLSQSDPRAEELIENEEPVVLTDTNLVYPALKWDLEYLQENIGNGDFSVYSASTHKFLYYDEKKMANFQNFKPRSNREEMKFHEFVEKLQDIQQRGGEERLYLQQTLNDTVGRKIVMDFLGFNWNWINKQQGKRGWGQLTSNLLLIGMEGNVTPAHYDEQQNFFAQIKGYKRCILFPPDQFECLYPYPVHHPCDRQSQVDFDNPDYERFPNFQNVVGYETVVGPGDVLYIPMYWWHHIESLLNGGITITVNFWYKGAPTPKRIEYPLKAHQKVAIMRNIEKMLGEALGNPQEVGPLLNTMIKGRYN

Structure (SMILES): O=C(O)CNC(=O)c1ncc(-c2cc(-c3ccc(CO)c([N+](=O)[O-])c3)no2)cc1O [NBA-ZG-2291]
- Ki (irradiation time 0 min): 414 ± 14 nM
- Ki (irradiation time 15 min): 74.1 ± 1.6 nM
- Ki (irradiation time 30 min): ~40 nM and 46.7 nM
- Ki (irradiation time 60 min): 33.2 ± 0.6 nM
- Ki (irradiation time 90 min): 30.2 ± 2 nM
- Ki (irradiation time 120 min): 32.1 ± 0.7 nM

— paper PMC12123601, “Light-Induced, Lysine-Targeting Irreversible Covalent Inhibition of the Human Oxygen Sensing Hydroxylase Factor Inhibiting HIF (FIH)” (Journal of the American Chemical Society, 2025)
